# Results taken from US20030099632A1, “Method for preparing a purified matrix metalloproteinase” (priority 2001, published 2003).
# Target: T1, MMP-13CD (Homo sapiens, UniProt P45452)
# T1 construct: expression of MMP-13 catalytic domain (“MMP-13CD”) in E. coli typically produces a pro form of the enzyme; A-S- dipeptide left from the M-A-S- expression leader (mPro-MMP-13CD); removed by autolysis (N, cleaved yes); made in house
# Assay: Autolysis of mPro-MMP-13CD / MMP-13CD after addition of a zinc ligand, followed by MALDI-MS
# Format: biochemical
# Details: added to modified pro form A-S-MMP-13CD
# Experimental: A 1 mL aliquot of the solution obtained in Preparation 3 was thawed and purified by addition of 100 μL of hydroxamic acid to give a solution of purified MMP-13CD, and the solution was stored at 4° C.
# Matrix-Assisted Laser Desorption/Ionization Mass Spectrometry (“MALDI”): MALDI mass spectra were acquired on a Bruker Daltonics, Inc (Billerika, Mass.) Reflex-III time-of-flight mass spectrometer operating in linear mode. The instrument has a 3.3-meter flight tube and an adjustable accelerating voltage up to 23 kV in Delayed Extraction mode. Radiation from a Laser Science, Inc. (Newton, Mass.) nitrogen laser (337 nm, 3-nanosecond pulse width) was used to desorb ions from the target. All linear delayed-extraction experiments were performed using an operating voltage of 23.0 kV, an extraction grid voltage of 20.0 kV, a focus voltage of 16.8 kV, and a lens voltage of 9.001 kV. Twenty-five to one hundred-fifty laser shots were averaged for each spectrum with a 5-point Savitsky-Golay smooth applied. […]
# Samples of protein were then analyzed by MALDI-MS every day for 5 days. […] The flash-frozen material was stored, then thawed and immediately analyzed. […] The relative peak heights were calculated by dividing the a.i. value for MMP-13CD at m/z 18923 by the a.i. value for the particular impurity. […]
smiles,measurement,value
CC(=O)NO [acetohydroxamic acid],effect on autolysis of MMP-13CD,stabilizes the resulting mature MMP-13CD itself against autolysis
